# According to patent publication US7452908B2, “Amide derivatives” (Banyu Pharmaceutical Co., Ltd., priority 1999, dated 2008):
# Columns and labels:
# M2 receptor = biological target: T1, M2 receptor (Rattus norvegicus, UniProt P10980); assay: Antagonism to M2 receptor in vivo: acetylcholine-induced bradycardia reaction in rats; settings: iv, acetylcholine (10 μg/kg) 5 minutes after test compound
# T1 construct: from tissue; host or cells: whole animal, male SD rats (in vivo)
# T1 sequence (P10980 1-466): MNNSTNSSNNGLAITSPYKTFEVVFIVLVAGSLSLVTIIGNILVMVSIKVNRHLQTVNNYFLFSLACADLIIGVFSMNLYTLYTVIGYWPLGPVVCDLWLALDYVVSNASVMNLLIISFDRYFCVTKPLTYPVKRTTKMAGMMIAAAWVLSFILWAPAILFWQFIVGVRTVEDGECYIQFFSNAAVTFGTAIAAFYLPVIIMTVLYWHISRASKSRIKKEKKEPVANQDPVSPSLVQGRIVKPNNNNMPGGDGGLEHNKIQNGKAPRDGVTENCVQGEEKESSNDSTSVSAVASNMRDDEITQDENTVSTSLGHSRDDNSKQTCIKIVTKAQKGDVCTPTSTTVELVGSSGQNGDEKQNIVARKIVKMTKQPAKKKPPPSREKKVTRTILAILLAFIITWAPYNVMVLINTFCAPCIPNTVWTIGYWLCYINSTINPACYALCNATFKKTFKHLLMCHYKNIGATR
# Experimental: Male SD strain rats (weighing 300-500 g) were anesthetized with urethane (1 g/kg) and α-chloralose (50 mg/kg) administered intraperitoneally. […] In this experiment, one-dosage evaluation was conducted per one animal of the tested rats.
# [1] = biological target: T2, human m3 muscarinic acetylcholine receptor expressed in CHO cells (Homo sapiens, UniProt P20309); assay: Inhibition of [3H]-N-methylscopolamine binding to muscarinic m3 receptor; settings: for Ki: human m3 in CHO cells, 0.2 nM [3H]-N-methylscopolamine; for Selectivity m1/m3: ratio of Ki m1 to Ki m3; for Selectivity m2/m3: ratio of Ki m2 to Ki m3; for Selectivity m4/m3: ratio of Ki m4 to Ki m3; for Selectivity m5/m3: ratio of Ki m5 to Ki m3
# T2 construct: purchased Receptor Biology, Inc; host or cells: CHO cells
# T2 sequence (P20309 whole entry): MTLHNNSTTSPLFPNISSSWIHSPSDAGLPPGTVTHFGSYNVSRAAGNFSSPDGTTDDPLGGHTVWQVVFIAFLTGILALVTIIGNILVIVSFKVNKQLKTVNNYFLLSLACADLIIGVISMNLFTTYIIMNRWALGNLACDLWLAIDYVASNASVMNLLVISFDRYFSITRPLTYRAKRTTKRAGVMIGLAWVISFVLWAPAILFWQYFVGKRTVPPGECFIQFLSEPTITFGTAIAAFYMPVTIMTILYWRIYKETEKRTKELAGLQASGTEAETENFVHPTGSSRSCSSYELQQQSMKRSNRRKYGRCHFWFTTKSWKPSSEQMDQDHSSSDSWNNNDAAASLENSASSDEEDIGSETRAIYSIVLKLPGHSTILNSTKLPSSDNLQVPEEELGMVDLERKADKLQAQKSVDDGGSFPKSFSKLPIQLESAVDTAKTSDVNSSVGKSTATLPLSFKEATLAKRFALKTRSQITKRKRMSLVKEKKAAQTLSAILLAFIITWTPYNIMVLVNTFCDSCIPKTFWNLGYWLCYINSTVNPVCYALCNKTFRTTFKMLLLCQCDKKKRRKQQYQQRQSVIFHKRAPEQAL
# Experimental: These tests were performed according to a modification of the method of Hargreaves, et al. (Br. J. Pharmacol. 107: 494-501, 1992). Namely, muscarinic acetylcholine receptors of human m1, m2, m3, m4 and m5 expressed in CHO cells (Receptor Biology, Inc.) were incubated with 0.2 nM [^3H]-N-methylscopolamine (82Ci/mmol, New England Nuclear, Inc.) and a test compound to be tested in 0.5 ml of 50 mM Tris-HCl, 10 mM MgCl2, 1 mM EDTA solution (pH 7.4) for 120 minutes at room temperature (about 20-25° C.), followed by suction filtration over a glass filter (UniFilter plate-GF/C; Packard). Then the filter was washed four times with 1 ml of ice-cold Tris-HCl buffer and dried at 50° C. for an hour. After adding a scintillator (Microscinti 0; Packard), the radioactivity of [^3H]-N-methylscopolamine binding to the filter was counted with a microplate scintillation counter (TopCount™; Packard). Non-specific receptor binding of [^3H]-N-methylscopolamine was measured by adding 1 μM N-methylscopolamine.
# [2] = biological target: T3, M2 receptor in isolated rat right atrium (Rattus norvegicus, UniProt P10980); assay: Antagonism to M2 receptor in isolated rat right atrium (carbachol-induced decrease in heart rate); type: cell-based; settings: shift of carbachol dose-response curve
# T3 construct: from tissue; host or cells: right atrium of male SD rats
# T3 sequence (P10980 1-466): T1 sequence (P10980 1-466)
# Experimental: The test was performed according to a conventional method. Male SD strain rats (weighing 300-500 g) were killed by exsanguination, and from each of them the right atrium was isolated. Each preparation was isometrically suspended in a Magnus tube filled with 20 ml of Krebs-Henseleit solution (gassed with 95% O2-5% CO2 and kept at 32° C.) with an initial tension of 0.5 g. The heart rate was recorded with a heart rate counter. After the preparation was equilibrated for 30 minutes, carbachol (10^−9 to 10^−6 M) was cumulatively administered from a low concentration to three-fold increasing doses and accompanying decrease in heart rate was measured to obtain a dose-responsecurve for the control experiment. Afterthe preparation was washed with fresh solution to restore the heart rate, a test compound was administered thereto. Ten minutes later, carbachol was cumulatively administered again. Responses to carbachol were expressed as percentages based on the heart rate before administration of carbachol as 100%. The antagonistic potency (KB value) of the test compound was determined from the degree of shift of the dose-responsecurve attributable to the treatment with individual test compound of the present invention. The results were as shown in Tables 2-1 and 2-2. • 2) Test for Antagonism to the Airway M3 Receptor in Isolated Rat Trachea
# M1 receptor = biological target: T4, M1 receptor (Rattus norvegicus, UniProt P08482); assay: Antagonism to M1 receptor in vivo: McNeil-A-343-induced vasopressor reaction in cervical vertebrae-separated rats; settings: iv, McNeil-A-343 (0.3 mg/kg) 5 minutes after test compound
# T4 construct: from tissue; host or cells: whole animal, male SD rats (in vivo)
# T4 sequence (P08482 1-460): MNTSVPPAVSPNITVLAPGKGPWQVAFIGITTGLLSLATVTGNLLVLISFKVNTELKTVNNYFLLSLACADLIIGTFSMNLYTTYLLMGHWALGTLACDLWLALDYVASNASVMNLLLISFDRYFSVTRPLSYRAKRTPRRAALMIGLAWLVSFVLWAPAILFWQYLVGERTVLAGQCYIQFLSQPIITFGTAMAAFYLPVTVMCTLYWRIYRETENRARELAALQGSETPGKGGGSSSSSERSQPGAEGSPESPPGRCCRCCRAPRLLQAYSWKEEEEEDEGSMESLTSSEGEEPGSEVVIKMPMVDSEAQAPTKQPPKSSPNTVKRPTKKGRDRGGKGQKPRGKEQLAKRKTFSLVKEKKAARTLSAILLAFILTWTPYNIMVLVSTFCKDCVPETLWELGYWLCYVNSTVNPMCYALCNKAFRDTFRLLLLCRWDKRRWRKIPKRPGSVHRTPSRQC
# Experimental: Male SD strain rats (weighing 300-500 g) were anesthetized with intraperitoneal administration of pentobarbital (50 mg/kg). Each rat's airway was cannulated by laryngotomy. Also by femoral incision, femoral artery and vein were isolated each and cannulated, which were used as routes for heart rate counting and chemical administration, respectively. Using a pulmotor for small animals (Type 7025, Ugo Basile Co.), artificial respiration was conducted under the conditions of ventilation rate of 6 ml/kg per breath and respiration rate of 90 breaths/min. The heart rate and blood pressure variations were measured with a heart rate counter (AT-601 G, Nippon Koden Co.) and a tonometer (AP-641G, Nippon Koden Co.), via a pressure transducer (DX-312, Nippon Koden Co.). After the blood pressure was stabilized, the cervical vertebrae was separated with an injection needle pricked from the occipital region. […] Five (5) minutes thereafter, McNeil-A-343 (0.3 mg/kg) was intravenously administered, and whereby induced hypertension variation was recorded. In this experiment one-dose evaluation per one animal was conducted. The inhibitory effect (inhibition ratio) of the test compound on the McNeil-A-343-induced vasopressor reaction was determined by the following equation: […]
Structure (SMILES),ED50 (M2 receptor),Ki [1],Selectivity m1/m3 [1],Selectivity m2/m3 [1],Selectivity m4/m3 [1],Selectivity m5/m3 [1],Kb [2],ED50 (M1 receptor)
"O=C(CCNC(=O)CNC(=O)CC(c1ccccc1)(c1ccccc1)c1ccccc1)NC[C@H]1CCCN(CC2CCCCC2)C1 [Example 12, N-{2-(3-{((3R)-1-cyclohexylmethyl-3-piperidyl)methyl}amino-3-oxopropyl)amino-2-oxoethyl}-3,3,3-triphenyloropanamide]",1.55 mg/kg,0.38 nM,370 times,89 times,47 times,84 times,160 nM,> 3 mg/kg
"CC[N+]1(CC)CCC[C@H](CNC(=O)[C@H]2CCCN2C(=O)[C@@H]2C[C@@H](O)CN2C(=O)CC(c2ccccc2)(c2ccccc2)c2ccccc2)C1.[Cl-] [Example 133, (3R)-1,1-diethyl-3-({({(2R)-1-({(2S,4R)-4-hydroxy-1-(3,3,3-triphenylpropanoyl)-2-pyrrolidinyl}carbonyl)-2-pyrrolidinyl}carbonyl)amino}methyl)piperidinium chloride]",0.114 mg/kg,3.2 nM,>780 times,250 times,44 times,500 times,41 nM,> 0.3 mg/kg
